Values of other authors as cited in US11608532B2, “Precision medicine for treating and preventing suicidality” (Indiana University Research and Technology Corporation, priority 2017, dated 2023).
Like-named read-outs stand apart in the source and are kept apart here.

Test system: individual top biomarkers for suicidality
Details: for TNF modulated by drug in opposite direction to suicide: direction of change in suicidality (I) DE/1, (I) AP/1
[1] = D. Top Biomarkers in Bipolar Disorder
[2] = A. Top Universal Biomarkers, direction of change in suicidality (I), DE/2
[3] = C. Top Biomarkers in Females, direction of change in suicidality I, DE/2
[4] = D. Top Biomarkers in Bipolar Disorder, direction of change in suicidality (I), DE/2
[5] = F. Top Biomarkers in Males with Bipolar Disorder, direction of change in suicidality (I), DE/2
[6] = E. Top Biomarkers in Depression, direction of change in suicidality (I), DE/1
[7] = biomarker BCL2 (B-cell CLL/lymphoma 2)
[8] = biomarker HTR2A (5-hydroxytryptamine (serotonin) receptor 2A, G protein-coupled)

In the case of etanercept, the “TNF modulated by drug in opposite direction to suicide” value (“TNF modulated by drug” below) [1] is listed as “, etanercept,”.
In the case of `CN(C)C(=O)N[C@H]1CC[C@H](CCN2CCN(c3cccc(Cl)c3Cl)CC2)CC1` [cariprazine], the “HTR2A modulated by drug in opposite direction to suicide” value (shortened to “HTR2A modulated by drug”) [2] is given as “cariprazine,”, the “HTR2A modulated by drug” value [3] is given as “cariprazine,” and the “HTR2A modulated by drug” value [4] is given as “cariprazine,”. The “HTR2A modulated by drug” value [5] was “cariprazine,”.
For `C[C@H]1Oc2c(cccc2N2CCN(CCCc3c[nH]c4ccc(F)cc34)CC2)NC1=O` [SLV-314], the “SLC6A4 modulated by drug in opposite direction to suicide” value (B. Top Biomarkers in Males, direction of change in suicidality I, DE/2) is listed as “SLV-314” and the “SLC6A4 modulated by drug in opposite direction to suicide” value (D. Top Biomarkers in Bipolar Disorder, direction of change in suicidality (D), DE/1) is listed as “SLV-314”.
In the case of `CNCCC(Oc1ccc(C(F)(F)F)cc1)c1ccccc1` (centres unmarked) [Fluoxetine], the “BDNF modulated by drug in opposite direction to suicide” value (“BDNF modulated by drug” for short) [3] is given as “Fluoxetine”, the “ACP1 modulated by drug in opposite direction to suicide” value (E. Top Biomarkers in Depression, direction of change in suicidality (D), AP/1) is given as “Fluoxetine” and the “BDNF modulated by drug” value [6] is given as “Fluoxetine”. For the same compound, the “JUN modulated by drug in opposite direction to suicide” value [6] was “Fluoxetine” and the “NTRK3 modulated by drug in opposite direction to suicide” value (G. Top Biomarkers in Males with Depression, direction of change in suicidality (D), AP/2) was “Fluoxetine”.
In the case of `CC(=O)O[C@H]1C(=O)[C@@]2(C)[C@H]([C@H](OC(=O)c3ccccc3)[C@]3(O)C[C@H](OC(=O)[C@H](O)[C@@H](NC(=O)c4ccccc4)c4ccccc4)C(C)=C1C3(C)C)[C@]1(OC(C)=O)CO[C@@H]1C[C@@H]2O` [Paclitaxel], the “Step 6 Drugs that Modulate the Biomarker in Opposite Direction to Suicide” value (shortened to “Step 6 Drugs that Modulate the Biomarker”) [7] is listed as “Paclitaxel”.
In the case of `O=C1CCC(N2C(=O)c3ccccc3C2=O)C(=O)N1` (centres unmarked) [thalidomide], the “TNF modulated by drug” value [1] is given as “thalidomide”.
For `CN1CCN(CCCN2c3ccccc3Sc3ccc(S(=O)(=O)N(C)C)cc32)CC1` [thioproperazine], the “HTR2A modulated by drug” value [2] is given as “thioproperazine,”, the “HTR2A modulated by drug” value [3] is given as “thioproperazine,” and the “HTR2A modulated by drug” value [4] is given as “thioproperazine,”. For the same compound, the “HTR2A modulated by drug” value [5] was “thioproperazine,”.
In the case of `O=C(CCCN1CCC(O)(c2ccc(Cl)cc2)CC1)c1ccc(F)cc1` [haloperidol, reference compound], the “BDNF modulated by drug” value [3] is listed as “Haloperidol”, the “BDNF modulated by drug” value [6] is listed as “Haloperidol” and the “Drugs that modulate the biomarker AGA” value (biomarker AGA (aspartyl glucosaminidase), Table 20 CFE drug-evidence) is listed as “Haloperidol”. For the same compound, the “Step 6 Drugs that Modulate the Biomarker” value (biomarker AGA (aspartylglucosaminidase)) was “Haloperidol”, the “Step 6 Drugs that Modulate the Biomarker” value (biomarker AKAP13 (A kinase (PRKA) anchor protein 13)) was “Haloperidol” and the “Drugs that modulate the biomarker RIMS3” value (biomarker RIMS3 (regulating synaptic membrane exocytosis 3), Table 20 CFE drug-evidence) was “Haloperidol”.
For `CN[C@H]1CC[C@@H](c2ccc(Cl)c(Cl)c2)c2ccccc21` [Sertraline], the “TNF modulated by drug” value [1] is listed as “Sertraline”.
In the case of `Fc1ccc([C@@H]2CCNC[C@H]2COc2ccc3c(c2)OCO3)cc1` [Paroxetine], the “CCL28 modulated by drug in opposite direction to suicide” value (A. Top Universal Biomarkers, direction of change in suicidality (D), AP/4) is given as “Paroxetine”.
In the case of Recombinant-methionyl human leptin, the “Step 6 Drugs that Modulate the Biomarker” value (biomarker LEPR (leptin receptor)) is given as “Recombinant-”.
For `OCCOCCN1CCN(C2=Nc3ccccc3Sc3ccccc32)CC1` [Quetiapine], the “IFNG modulated by drug in opposite direction to suicide” value (A. Top Universal Biomarkers, direction of change in suicidality (D), AP/1) is given as “Quetiapine,” and the “Step 6 Drugs that Modulate the Biomarker” value [8] is given as “Quetiapine”.
For `CCc1nn(CCCN2CCN(c3cccc(Cl)c3)CC2)c(=O)n1CCOc1ccccc1` [Nefazodone], the “Step 6 Drugs that Modulate the Biomarker” value [8] is listed as “Nefazodone”.
In the case of `CN1CCN2c3ncccc3Cc3ccccc3C2C1` (centres unmarked) [Mirtazapine], the “Step 6 Drugs that Modulate the Biomarker” value [8] is listed as “Mirtazapine”.
In the case of `CC#C[C@]1(O)CC[C@H]2[C@@H]3CCC4=CC(=O)CCC4=C3[C@@H](c3ccc(N(C)C)cc3)C[C@@]21C` [Mifepristone], the “BDNF modulated by drug” value [3] is given as “Mifepristone” and the “BDNF modulated by drug” value [6] is given as “Mifepristone”.
For Oblimersen, the “Step 6 Drugs that Modulate the Biomarker” value [7] is listed as “Oblimersen”.
For tocilizumab, the “IL6 modulated by drug in opposite direction to suicide” value (B. Top Biomarkers in Males, direction of change in suicidality I, AP/2) is listed as “tocilizumab,”.
